According to ChEMBL document CHEMBL1148932, “Cyanopeptolin 963A, a chymotrypsin inhibitor of Microcystis PCC 7806” (J Nat Prod, 2004):
The source made the active and inactive calls. The calls are words filed in the database; no cut-off is given here.

Columns and labels:
[1] = Inhibition of alpha-chymotrypsin in bovine pancreas; set-up: species or system Bos taurus
[2] = biological target: Cathepsin B (Bos taurus) (UniProt P07688); experiment: Inhibition of cathepsin B in bovine spleen at 15 uM
[3] = species: Sus scrofa; experiment: Inhibition of trypsin in pig pancreas at 15 uM

Compound	IC50 [1] [nM]	Activity [2]	Activity [3]
CCCCCC(=O)N[C@@H](CC(=O)O)C(=O)N[C@@H]1C(=O)N[C@@H](Cc2ccc(O)cc2)C(=O)N[C@H]2CC[C@@H](O)N(C2=O)[C@@H](CC(C)C)C(=O)N(C)[C@@H](Cc2ccccc2)C(=O)N[C@@H](C(C)C)C(=O)O[C@@H]1C [CYANOPEPTOLIN 963A]	900	inactive	inactive
CC[C@H](C)[C@@H]1NC(=O)[C@H](Cc2ccc(O)cc2)N(C)C(=O)[C@H](Cc2ccccc2)N2C(=O)[C@H](CC[C@H]2O)NC(=O)[C@H](Cc2ccccc2)NC(=O)[C@@H](NC(=O)[C@@H](O)COP(=O)(O)O)[C@@H](C)OC1=O [MICROPEPTIN T 20]	2.5		
